Experimental findings from patent US20130109712A1, “Statins for the Prevention or Treatment of Drug Addictions” (Universite de Poitiers, priority 2010, published 2013) are described below.

One experiment relates to cocaine-seeking behavior. The experiment can be described thus: Cocaine-seeking test (extinction session) after cocaine self-administration and 20-day abstinence. The class given is in vivo, Sprague-Dawley rats. The following applies: rats, simvastatin 1 mg/kg i.p. daily for 20 days of abstinence, 3 h extinction test.
Experiment [1] has as its system nicotine-seeking behavior. As to the kind of experiment: Nicotine-seeking test (extinction session) after nicotine self-administration and 20-day abstinence. In kind it is in vivo, Sprague-Dawley rats. The note with it: rats, simvastatin 1 mg/kg i.p. daily for 20 days of abstinence; 1 h extinction test; control approx. 100 active nose pokes. The method, then: Thus, the logic of the experiment is the following: • 1) the rats acquire self-administration under similar conditions; • 2) during withdrawal from self-administration, they are separated and receive, once a day for 20 days, an injection of simvastatin (1 mg/kg i.p) or a control solution; • 3) they are tested in a drug-seeking protocol in which their responses are not reinforced by the drug. Adult male (11-12 weeks old) Sprague-Dawley rats (Janvier, France), experimentally naive at the beginning of the study, are placed in the animal house with controlled temperature and degree of humidity, and are kept in a 12-hour light/dark cycle (light active at 7 am). As soon as they arrive, the rats are placed in cages in groups of 3 for one week, before beginning the surgery, consisting of the implantation of a catheter in the jugular vein. After the surgery and during the rest of the experiment, the rats are placed in cages individually. All the experiments are carried out during the “day” phase, in accordance with EC regulations for the use of animals in research (86/609/EEC). For the nicotine, 24 self-administration sessions are carried out using a fixed ratio 1 or 3 (FR1 or FR3) schedule of reinforcement, i.e., during the sessions, respectively one or three nose pokes in the active hole deliver an i.v. injection of nicotine. […]

Each structure is given as a SMILES string.

Turning to `CCC(C)(C)C(=O)O[C@H]1C[C@@H](C)C=C2C=C[C@H](C)[C@H](CC[C@@H]3C[C@@H](O)CC(=O)O3)[C@H]21` [simvastatin], the “reduction in cocaine-seeking behavior vs control” value in the experiment with cocaine-seeking behavior is recorded as 45%. Also, the “number of active nose pokes (drug-seeking behavior)” value in the experiment with cocaine-seeking behavior (control approx. 350) was “approximately 190 active nose pokes”. Further, the “reduction in nicotine-seeking behavior vs control” value in experiment [1] was “approximately 50%”.
